The source of these data is PMC10675732 (Viruses, 2023).

SMILES strings stand for the structures. Where “and” joins values, the source holds several entries; their conditions need not be identical. Identical values can stand only once. Like-named read-outs stand apart in the source and are kept apart here. Marks after values point to notes of the source that are not given here. Some results are limits rather than exact numbers.

The test system of data set [1] is A/PR/8/34 (H1N1). It is filed as in vivo, influenza A virus.
The test system of another data set is influenza A viruses. The conditions noted are these: range over influenza A viruses, previous study; cited from earlier work.
The conditions of data set [2]: cited from earlier work.
The next data set has as its system influenza B viruses. The conditions noted are these: range over influenza B viruses, previous study; cited from earlier work.
The conditions of data set [3]: mouse, in vivo, po; cited from earlier work.
Data set [4] deals with seasonal influenza A viruses. The conditions noted are these: cited from earlier work.
For data set [5], the system named is B/Hong Kong/5/72. Conditions: viral yield; cited from earlier work.
A short description of a further data set: in vivo. Conditions: mouse, sc.
The conditions of data set [6]: human, in vivo, po; cited from earlier work.
Data set [7] relates to Parent virus (A/PR/8/34 (H1N1)). Kind of data set: microbe, parasite or virus in culture. The format is cell-based. Conditions: Influenza A virus, plaque reduction assay. Background: Plaques are areas of infected cells; plaque reduction assays count them against a control.
Data set [8] deals with B/Hong Kong/5/72. The format is in vivo, influenza B virus.
Data set [9] deals with A/PR/8/34 (H1N1). Conditions: viral yield; cited from earlier work.

By EC90 is commonly meant the concentration at which the effect reaches the 90% level. A word on the half-life: it is the time needed for the level to fall by half in the phase considered. What is called EC50 is the concentration at which the effect is half-maximal. As for `O=C1c2c(O)c(=O)ccn2N([C@@H]2c3ccccc3SCc3c2ccc(F)c3F)[C@@H]2COCCN12` [baloxavir acid], the “Body weight loss induced by infection” value in the data set with A/PR/8/34 (H1N1) [1] (in vivo) and in the data set with B/Hong Kong/5/72 [8] (in vivo) was “suppressed body weight loss” each time. Also, in the data set on A/PR/8/34 (H1N1) [1] (in vivo), the Mortality result was “complete elimination of mortality”. Besides, the “Mortality due to infection” value in the data set on A/PR/8/34 (H1N1) [1] (in vivo) and in the data set on B/Hong Kong/5/72 [8] (in vivo) was “completely eliminated mortality” in each case. Moreover, the Survival result in the data set with A/PR/8/34 (H1N1) [1] (in vivo) and in the data set with B/Hong Kong/5/72 [8] (in vivo) was “all mice survived” each time. Further, the “Survival Rate” value with A/PR/8/34 (H1N1) [1] (in vivo) was 100 ** %; in the data set on B/Hong Kong/5/72 [8] (in vivo), 50 * % and 100 ** % and 80 * % and 50%. For the same compound, the “Virus titres in the lungs compared to the oseltamivir phosphate group” value with A/PR/8/34 (H1N1) [1] (in vivo) and in the data set on B/Hong Kong/5/72 [8] (in vivo) was “significantly lower” each time. Moreover, the “Virus titres in the lungs compared to the vehicle-treated group” value is on record as “significantly low” with A/PR/8/34 (H1N1) [1] (in vivo) and “significantly low” in the data set on B/Hong Kong/5/72 [8] (in vivo, sc, 10 mg/kg). In addition, the EC90 is 0.46 to 0.98 nM in the data set with influenza A viruses, 2.2 to 6.5 nM in the data set with influenza B viruses, 2.2 nM in the data set with B/Hong Kong/5/72 [5] and 0.79 nM with A/PR/8/34 (H1N1) [9]. Besides, the Plasma concentration in [2] (10 mg/kg s.c. single dose, 2 h after dosing) is given as 44.0 ng/mL; in data set [2] (10 mg/kg s.c. single dose, 4 h after dosing), 47.2 ng/mL; in data set [2] (10 mg/kg s.c. single dose, 8 h after dosing), 34.4 ng/mL; in data set [2] (10 mg/kg s.c. single dose, 48 h after dosing) it was 17.8 ng/mL; in data set [2] (10 mg/kg s.c. single dose, 120 h after dosing) it was 6.79 ng/mL; in data set [2] (10 mg/kg s.c. single dose, 168 h after dosing), 6.51 ng/mL. Also, the Plasma concentration in [2] (10 mg/kg s.c. single dose, 216 h after dosing) is given as 5.97 ng/mL; in data set [2] (mouse, in vivo) it was 26.1 ng/mL. In data set [3], the “Half-life of baloxavir acid in plasma” value is 2.2 to 3.1 h. Also, in [4], the “mean EC50 against seasonal influenza A viruses relative to influenza B viruses” value is “five to ten times lower”. For the same compound, the half-life is 74.2 h in “in vivo” (female, BALB/c, 3.2 mg/kg); 84.2 h in the data set “in vivo” (female, BALB/c, 6.4 mg/kg); 49.9 h in the data set “in vivo” (10 mg/kg). In [6], the “Half-life of baloxavir acid in humans” value was 49 to 91 h. For the same compound, the EC50 in data set [7] worked out at 1.69 ± 0.57 nM. This compound also gave a Survival rate in the data set on B/Hong Kong/5/72 [8] (in vivo) of at most 50%. For the same compound, in the data set with B/Hong Kong/5/72 [8] (in vivo), the Survival vs vehicle entry was “significantly improved survival”.
Consider `NC(=O)c1nc(F)c[nH]c1=O` [Favipiravir], for which the EC50 in data set [7] amounted to 22300 ± 1010 nM.
Turning to `CCOC(=O)C1=C[C@@H](OC(CC)CC)[C@H](NC(C)=O)[C@@H](N)C1` [oseltamivir phosphate], the “Body weight loss induced by infection” value in the data set on A/PR/8/34 (H1N1) [1] (in vivo) and with B/Hong Kong/5/72 [8] (in vivo) was “suppressed body weight loss” each time. Further, the “Virus titres in the lungs compared to the vehicle-treated group” value in the data set on A/PR/8/34 (H1N1) [1] (in vivo) is “significantly low”. Further, the results for the Mice survived in the data set on A/PR/8/34 (H1N1) [1] (n = 10) and with B/Hong Kong/5/72 [8] (n = 10) were 100% and 70%, respectively.
